ChEMBL document CHEMBL1201861, “Genomics of Drug Sensitity in Cancer screening data, Wellcome Trust Sanger Institute”

Assays:
Type in all cases: functional, cell-based
PF-382 = experiment: cells; settings: Homo sapiens
Description: SANGER: Inhibition of human PF-382 cell growth in a cell viability assay.

LOUCY = experiment: cells; settings: Homo sapiens;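 further: growth inhibition of human LOUCY cells, read out with a cell viability assay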
Description: SANGER: Inhibition of human LOUCY cell growth in a cell viability assay.

BC1 cell line = experiment: SANGER: Inhibition of human BC-1 cell growth in a cell viability assay.
D-336MG = experiment: cells; settings: Homo sapiens
Description: SANGER: Inhibition of human D-336MG cell growth in a cell viability assay.

ST486 = experiment: SANGER: Inhibition of human ST486 cell growth in a cell viability assay.
BOKU = experiment: cells; settings: Homo sapiens;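 further: growth inhibition of the human BOKU cell line, read out by a cell viability assay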
Description: SANGER: Inhibition of human BOKU cell growth in a cell viability assay.

TALL-1 = experiment: cells; settings: Homo sapiens;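 further: growth inhibition of cultured human TALL-1 cells, read out by a cell viability assay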
Description: SANGER: Inhibition of human TALL-1 cell growth in a cell viability assay.

GDM-1 = experiment: cells; settings: Homo sapiens;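 further: cell viability readout used to measure growth inhibition of human GDM-1 cells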
Description: SANGER: Inhibition of human GDM-1 cell growth in a cell viability assay.

TE-15 = experiment: cells; settings: Homo sapiens;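 further: cell viability readout of growth inhibition in TE-15 cells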
Description: SANGER: Inhibition of human TE-15 cell growth in a cell viability assay.

Kasumi 1 = experiment: cells; settings: Homo sapiens;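 further: growth inhibition of human Kasumi-1 cells, read out by a cell viability assay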
Description: SANGER: Inhibition of human KASUMI-1 cell growth in a cell viability assay.

OPM-2 = experiment: cells; settings: Homo sapiens;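 further: growth of OPM-2 cells measured with a viability assay, IC50 for suppression of proliferation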
Description: SANGER: Inhibition of human OPM-2 cell growth in a cell viability assay.

KARPAS-422 = experiment: cells; settings: Homo sapiens
Description: SANGER: Inhibition of human KARPAS-422 cell growth in a cell viability assay.

SIMA = experiment: cells; settings: Homo sapiens;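 further: growth inhibition of SIMA cells, measured with a cell viability readout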
Description: SANGER: Inhibition of human SIMA cell growth in a cell viability assay.

HCC1599 = experiment: cells; settings: Homo sapiens;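 further: growth inhibition of HCC1599 cells, read out in a cell viability assay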
Description: SANGER: Inhibition of human HCC1599 cell growth in a cell viability assay.

DG-75 = experiment: cells; settings: Homo sapiens;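 further: growth inhibition of DG-75 cells, read out with a cell viability assay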
Description: SANGER: Inhibition of human DG-75 cell growth in a cell viability assay.

EB-3 = experiment: cells; settings: Homo sapiens;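 further: human EB-3 cells, growth inhibition read out via a cell viability assay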
Description: SANGER: Inhibition of human EB-3 cell growth in a cell viability assay.

HCC 2998 = experiment: cells; settings: Homo sapiens;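 further: growth inhibition of human HCC2998 cells, measured with a cell viability read-out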
Description: SANGER: Inhibition of human HCC2998 cell growth in a cell viability assay.

T84 = experiment: cells; settings: Homo sapiens;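 further: growth inhibition measured with a cell viability readout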
Description: SANGER: Inhibition of human T84 cell growth in a cell viability assay.

KOSC-2 = experiment: cells; settings: Homo sapiens;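 further: growth inhibition of KOSC-2 cells, read out by a cell viability assay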
Description: SANGER: Inhibition of human KOSC-2 cell growth in a cell viability assay.

HT-3 = experiment: cells; settings: Homo sapiens;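 further: growth inhibition measured with a cell viability readout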
Description: SANGER: Inhibition of human HT-3 cell growth in a cell viability assay.

NCI-H2052 = experiment: cells; settings: Homo sapiens;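 further: growth inhibition of NCI-H2052 cells, read out with a cell viability assay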
Description: SANGER: Inhibition of human NCI-H2052 cell growth in a cell viability assay.

HMV-2 cell line = experiment: cells; settings: Homo sapiens;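 further: growth inhibition of HMV-II cells, read out with a cell viability assay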
Description: SANGER: Inhibition of human HMV-II cell growth in a cell viability assay.

IGROV-1 = experiment: cells; settings: Homo sapiens;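 further: reduction of IGROV-1 cell growth, read out with a viability assay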
Description: SANGER: Inhibition of human IGROV-1 cell growth in a cell viability assay.

HSC-4 = experiment: cells; settings: Homo sapiens;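 further: growth inhibition of human HSC-4 cells, read out with a cell viability assay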
Description: SANGER: Inhibition of human HSC-4 cell growth in a cell viability assay.

AU565 = experiment: cells; settings: Homo sapiens;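 further: cell viability assay measuring growth inhibition of human AU565 cells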
Description: SANGER: Inhibition of human AU565 cell growth in a cell viability assay.

NCI-H2452 = experiment: cells; settings: Homo sapiens;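 further: growth inhibition of NCI-H2452 cells, read out with a cell viability assay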
Description: SANGER: Inhibition of human NCI-H2452 cell growth in a cell viability assay.

NCI-H650 = experiment: cells; settings: Homo sapiens;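 further: growth inhibition of NCI-H650 cells, read out by a viability assay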
Description: SANGER: Inhibition of human NCI-H650 cell growth in a cell viability assay.

M059J = experiment: cells; settings: Homo sapiens;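 further: growth inhibition of M059J cells, read out with a cell viability assay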
Description: SANGER: Inhibition of human M059J cell growth in a cell viability assay.

HOP-92 = experiment: cells; settings: Homo sapiens;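 further: cell viability readout, with IC50 reflecting inhibition of HOP-92 cell growth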
Description: SANGER: Inhibition of human HOP-92 cell growth in a cell viability assay.

NCI-H460 = experiment: cells; settings: Homo sapiens;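 further: cell viability assay scoring growth inhibition of human NCI-H460 cells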
Description: SANGER: Inhibition of human NCI-H460 cell growth in a cell viability assay.

LCLC-97TM1 = experiment: cells; settings: Homo sapiens;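 further: cell viability assay measuring growth inhibition of human LCLC-97TM1 cells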
Description: SANGER: Inhibition of human LCLC-97TM1 cell growth in a cell viability assay.

LoVo = experiment: cells; settings: Homo sapiens;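 further: growth inhibition of human LoVo cells, read out with a cell viability assay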
Description: SANGER: Inhibition of human LoVo cell growth in a cell viability assay.

RO82-W-1 = experiment: cells; settings: Homo sapiens;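 further: growth inhibition of human RO82-W-1 cells, measured with a cell viability assay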
Description: SANGER: Inhibition of human RO82-W-1 cell growth in a cell viability assay.

IGR-1 = experiment: cells; settings: Homo sapiens;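 further: growth inhibition of human IGR-1 cells, read out with a cell viability assay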
Description: SANGER: Inhibition of human IGR-1 cell growth in a cell viability assay.

A2780 = experiment: cells; settings: Homo sapiens;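 further: growth inhibition of A2780 cells, read out with a cell viability assay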
Description: SANGER: Inhibition of human A2780 cell growth in a cell viability assay.

COLO-679 = experiment: cells; settings: Homo sapiens
Description: SANGER: Inhibition of human COLO-679 cell growth in a cell viability assay.

NCI-H1755 = experiment: cells; settings: Homo sapiens;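 further: cell viability readout used to measure growth inhibition of NCI-H1755 cells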
Description: SANGER: Inhibition of human NCI-H1755 cell growth in a cell viability assay.

HT-1080 = experiment: cells; settings: Homo sapiens
Description: SANGER: Inhibition of human HT-1080 cell growth in a cell viability assay.

BXPC-3 = experiment: cells; settings: Homo sapiens;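 further: growth inhibition of human BxPC-3 cells, read out by a cell viability assay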
Description: SANGER: Inhibition of human BxPC-3 cell growth in a cell viability assay.

GP5d = experiment: cells; settings: Homo sapiens;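 further: growth inhibition of human GP5d cells, read out with a cell viability assay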
Description: SANGER: Inhibition of human GP5d cell growth in a cell viability assay.

NCI-H2087 = experiment: cells; settings: Homo sapiens;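 further: growth inhibition determined with a cell viability readout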
Description: SANGER: Inhibition of human NCI-H2087 cell growth in a cell viability assay.

OVCAR-5 = experiment: cells; settings: Homo sapiens;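 further: growth inhibition of human OVCAR-5 cells, read out with a cell viability assay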
Description: SANGER: Inhibition of human OVCAR-5 cell growth in a cell viability assay.

SJRH30 = experiment: cells; settings: Homo sapiens;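 further: growth inhibition of human SJRH30 cells, read out with a cell viability assay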
Description: SANGER: Inhibition of human SJRH30 cell growth in a cell viability assay.

EFM-19 = experiment: cells; settings: Homo sapiens;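 further: growth inhibition of human EFM-19 cells, measured in a cell viability assay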
Description: SANGER: Inhibition of human EFM-19 cell growth in a cell viability assay.

BCPAP = experiment: cells; settings: Homo sapiens;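 further: growth inhibition of BCPAP cells, read out in a cell viability assay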
Description: SANGER: Inhibition of human BCPAP cell growth in a cell viability assay.

CWR22R = experiment: cells; settings: Homo sapiens, 22Rv1;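 further: growth inhibition of 22Rv1 cells, read out with a cell viability assay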
Description: SANGER: Inhibition of human 22RV1 cell growth in a cell viability assay.

EFO-27 = experiment: cells; settings: Homo sapiens;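 further: growth inhibition of EFO-27 cells, read out with a cell viability assay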
Description: SANGER: Inhibition of human EFO-27 cell growth in a cell viability assay.

YAPC = experiment: cells; settings: Homo sapiens;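 further: growth inhibition of YAPC cells, measured with a cell viability assay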
Description: SANGER: Inhibition of human YAPC cell growth in a cell viability assay.

Detroit 562 = experiment: cells; settings: Homo sapiens;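 further: growth inhibition of human Detroit 562 cells, read out by a cell viability assay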
Description: SANGER: Inhibition of human Detroit562 cell growth in a cell viability assay.

OAW-42 = experiment: cells; settings: Homo sapiens;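 further: growth inhibition of OAW-42 cells, read out with a cell viability assay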
Description: SANGER: Inhibition of human OAW-42 cell growth in a cell viability assay.

NCI-H1437 = experiment: cells; settings: Homo sapiens;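 further: growth inhibition of human NCI-H1437 cells, read out by a cell viability assay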
Description: SANGER: Inhibition of human NCI-H1437 cell growth in a cell viability assay.

CAL-27 = experiment: cells; settings: Homo sapiens;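 further: Viability-based readout, IC50 reflecting inhibition of CAL-27 cell growth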
Description: SANGER: Inhibition of human CAL-27 cell growth in a cell viability assay.

SK-MEL-24 = experiment: cells; settings: Homo sapiens;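 further: growth inhibition read out by a cell viability assay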
Description: SANGER: Inhibition of human SK-MEL-24 cell growth in a cell viability assay.

HT55 = experiment: cells; settings: Homo sapiens;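 further: cell viability readout measuring growth inhibition of human HT55 cells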
Description: SANGER: Inhibition of human HT55 cell growth in a cell viability assay.

HCC1937 = experiment: cells; settings: Homo sapiens;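 further: growth inhibition measured with a cell viability read-out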
Description: SANGER: Inhibition of human HCC1937 cell growth in a cell viability assay.

VM-CUB-1 = experiment: cells; settings: Homo sapiens;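 further: cell viability assay measuring growth inhibition of the human VM-CUB-1 cell line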
Description: SANGER: Inhibition of human VM-CUB-1 cell growth in a cell viability assay.

NCI-H2009 = experiment: cells; settings: Homo sapiens
Description: SANGER: Inhibition of human NCI-H2009 cell growth in a cell viability assay.

ESS-1 = experiment: cells; settings: Homo sapiens
Description: SANGER: Inhibition of human ESS-1 cell growth in a cell viability assay.

HCC1419 = experiment: cells; settings: Homo sapiens
Description: SANGER: Inhibition of human HCC1419 cell growth in a cell viability assay.

H4 = experiment: cells; settings: Homo sapiens
Description: SANGER: Inhibition of human H4 cell growth in a cell viability assay.

COLO-792 = experiment: cells; settings: Homo sapiens
Description: SANGER: Inhibition of human COLO-792 cell growth in a cell viability assay.

HN = experiment: cells; settings: Homo sapiens
Description: SANGER: Inhibition of human HN cell growth in a cell viability assay.

DU-145 = experiment: cells; settings: Homo sapiens
Description: SANGER: Inhibition of human DU-145 cell growth in a cell viability assay.

Cc1n[nH]c2ccc(-c3cncc(OC[C@@H](N)Cc4c[nH]c5ccccc45)c3)cc12 [A-443654]
IC50 (PF-382): 638 nM
IC50 (LOUCY): 158 nM
IC50 (BC1 cell line): 701 nM
IC50 (D-336MG): 421 nM
IC50 (ST486): 204 nM
IC50 (BOKU): > 1020 nM
IC50 (TALL-1): 242 nM
IC50 (GDM-1): > 1020 nM
IC50 (TE-15): 59.1 nM
IC50 (Kasumi 1): > 1020 nM
IC50 (OPM-2): 314 nM
IC50 (KARPAS-422): 294 nM
IC50 (SIMA): > 1020 nM
IC50 (HCC1599): 162 nM
IC50 (DG-75): 546 nM
IC50 (EB-3): 334 nM

Cc1nc(Nc2ncc(C(=O)Nc3c(C)cccc3Cl)s2)cc(N2CCN(CCO)CC2)n1 [DASATINIB]
IC50 (PF-382): 177 nM
IC50 (LOUCY): > 1280 nM
IC50 (BC1 cell line): > 1280 nM
IC50 (D-336MG): 6.3 nM
IC50 (ST486): > 1280 nM
IC50 (BOKU): 491 nM
IC50 (TALL-1): > 1280 nM
IC50 (GDM-1): > 1280 nM
IC50 (TE-15): 5.89 nM
IC50 (Kasumi 1): > 1280 nM
IC50 (OPM-2): > 1280 nM
IC50 (KARPAS-422): 340 nM
IC50 (SIMA): > 1280 nM
IC50 (HCC1599): > 1280 nM
IC50 (DG-75): > 1280 nM
IC50 (EB-3): > 1280 nM

CCn1c(-c2nonc2N)nc2cnc(Oc3cccc(NC(=O)c4ccc(OCCN5CCOCC5)cc4)c3)cc21 [GSK-269962A]
IC50 (PF-382): > 2500 nM
IC50 (LOUCY): 1150 nM
IC50 (BC1 cell line): > 2500 nM
IC50 (D-336MG): 629 nM
IC50 (ST486): > 2500 nM
IC50 (TALL-1): > 2500 nM
IC50 (GDM-1): > 2500 nM
IC50 (TE-15): > 2500 nM
IC50 (Kasumi 1): > 2500 nM
IC50 (OPM-2): > 2500 nM
IC50 (KARPAS-422): > 2500 nM
IC50 (SIMA): > 2500 nM
IC50 (HCC1599): > 2500 nM
IC50 (DG-75): > 2500 nM
IC50 (HCC 2998): > 2500 nM
IC50 (EB-3): > 2500 nM

CO[C@@]12[C@H](COC(N)=O)C3=C(C(=O)C(C)=C(N)C3=O)N1C[C@@H]1N[C@@H]12 [MITOMYCIN]
IC50 (PF-382): 251 nM
IC50 (LOUCY): 26.2 nM
IC50 (T84): 173 nM
IC50 (KOSC-2): 1530 nM
IC50 (HT-3): < 62.5 nM
IC50 (NCI-H2052): 1990 nM
IC50 (HMV-2 cell line): 166 nM
IC50 (IGROV-1): 106 nM
IC50 (BC1 cell line): 88.8 nM
IC50 (HSC-4): 434 nM
IC50 (AU565): 501 nM
IC50 (ST486): 494 nM
IC50 (NCI-H2452): 8940 nM
IC50 (BOKU): 104 nM
IC50 (NCI-H650): 344 nM
IC50 (M059J): 101 nM
IC50 (HOP-92): 1940 nM
IC50 (NCI-H460): < 62.5 nM
IC50 (TALL-1): 2400 nM
IC50 (GDM-1): 377 nM
IC50 (LCLC-97TM1): 139 nM
IC50 (TE-15): 73.7 nM
IC50 (LoVo): 431 nM
IC50 (RO82-W-1): 13300 nM
IC50 (IGR-1): 322 nM
IC50 (A2780): 107 nM
IC50 (COLO-679): 90.2 nM
IC50 (NCI-H1755): 5440 nM
IC50 (HT-1080): 354 nM
IC50 (BXPC-3): 775 nM
IC50 (GP5d): 84 nM
IC50 (NCI-H2087): 85.7 nM
IC50 (OVCAR-5): 487 nM
IC50 (SJRH30): 1670 nM
IC50 (EFM-19): 2090 nM
IC50 (BCPAP): 240 nM
IC50 (CWR22R): 144 nM
IC50 (EFO-27): 1130 nM
IC50 (YAPC): 4370 nM
IC50 (Detroit 562): 170 nM
IC50 (OPM-2): 6350 nM
IC50 (OAW-42): 89.4 nM
IC50 (KARPAS-422): 907 nM
IC50 (NCI-H1437): 126 nM
IC50 (CAL-27): 41.2 nM
IC50 (SK-MEL-24): 1370 nM
IC50 (HT55): 1950 nM
IC50 (HCC1937): 594 nM
IC50 (VM-CUB-1): 261 nM
IC50 (SIMA): 241 nM
IC50 (NCI-H2009): 289 nM
IC50 (HCC1599): 120 nM
IC50 (ESS-1): < 62.5 nM
IC50 (HCC1419): 3480 nM
IC50 (H4): < 62.5 nM
IC50 (COLO-792): 1500 nM
IC50 (HN): 783 nM
IC50 (DG-75): 6250 nM
IC50 (DU-145): < 62.5 nM
IC50 (HCC 2998): 160 nM
IC50 (EB-3): 3200 nM

Cc1[nH]c(/C=C2\C(=O)Nc3ccc(S(=O)(=O)Cc4c(Cl)cccc4Cl)cc32)c(C)c1C(=O)N1CCC[C@@H]1CN1CCCC1 [PHA-665752]
IC50 (PF-382): > 2000 nM
IC50 (LOUCY): > 2000 nM
IC50 (BC1 cell line): > 2000 nM
IC50 (D-336MG): > 2000 nM
IC50 (ST486): > 2000 nM
IC50 (BOKU): > 2000 nM
IC50 (TALL-1): > 2000 nM
IC50 (GDM-1): > 2000 nM
IC50 (TE-15): > 2000 nM
IC50 (Kasumi 1): > 2000 nM
IC50 (OPM-2): > 2000 nM
IC50 (KARPAS-422): > 2000 nM
IC50 (SIMA): > 2000 nM
IC50 (HCC1599): > 2000 nM
IC50 (DG-75): > 2000 nM
IC50 (EB-3): > 2000 nM
